Reference: patent publication US7776868B2, “Substituted bicyclic and tricyclic thieno[2,3-d]pyrimidines as A2A adenosine receptor antagonists” (Gilead Palo Alto, Inc., priority 2006, dated 2010)

Molecular target: A2A adenosine receptor (UniProt P29274)
Assay: A2A radioligand competitive binding assay (3H-MSX-2 displacement)
Parameters: species or system human
Details: competitive binding vs 2 nM 3H-MSX-2, 15 ug A2A membrane, 23° C., 2 hours
Text: A tritiated adenosine A2A antagonist, 3-(3-hydroxypropyl)-7-methyl-8-(m-methoxystyryl)-1-propargylxanthine, (3H-MSX-2, specific activity: 80 Ci/mmol), was purchased from American Radiolabeled Chemicals, Inc (St. Louis, Mo.). A tritiated adenosine A1 antagonist, 1,3-Dipropyl-8-cyclopentylxanthine ([^3H]DPCPX, specific activity: 120 Ci/mmol) was purchased from Perkin Elmer (Boston, Mass.). A tritiated adenosine A2B antagonist, 4-(2-[7-amino-2-(2-furyl) [1,2,4]triazolo[2,3-a][1,3,5]triazin-5-ylamino]ethyl)phenol ([^3H]ZM241385 specific activity: 27.4 Ci/mmol) was purchased from American Radiolabeled Chemicals, Inc (St. Louis, Mo.). Adenosine Deaminase (ADA) was purchased from Roche Molecular Biochemicals (Nutley, N.J.). GTP was purchased from Sigma. Concentrated stock solution (10 mM) of compounds was dissolved in dimethylsulfoxide (DMSO), stored at −20° C., and diluted in Tris-EDTA buffer (50 mM Tris and 1 mM EDTA, 10 mM MgCl2, pH 7.4) for use in experiments. The final content of dimethylsulfoxide in Tris-EDTA buffer during experiments was not more than 1%. Male Sprague Dawley rats, weighted 250-400 g, 8-10 weeks old, were purchased from Charles River Labs (Wilmington, Mass.).
HEK293 (Human Embryonic Kidney 293) cells stably expressing human A2A adenosine receptor or human A2B adenosine receptor were maintained in DMEM supplemented with 10% fetal bovine serum, 2 mM L-glutamine, 100 IU/ml penicillin, 50 μg/ml streptomycin and 2 μg/ml puromycin. CHO (Chinese Hamster Ovary) cells stably expressing human A1 adenosine receptor or human A3 adenosine receptor were maintained in F12K medium supplemented with 10% fetal bovine serum, 2 mM L-glutamine, 100 IU penicillin, 50 μg/ml streptomycin and 8 μg/ml puromycin. PC12 (rat pheochromocytoma) cells were cultured in F12K medium supplemented with 10% horse serum and 2.5% fetal bovine serum, 2 mM L-glutamine, 100 IU/ml penicillin, and 50 μg/ml streptomycin. All cells were maintained at 37° C. in a humidified 5% CO2/95% air incubator and recultivated 2 times per week.
Cultured cells in 150 mm^2 dishes were washed once with PBS, detached by scrapping, collected with buffer A (10 mM HEPES, 10 mM EDTA, pH 7.4) containing protease inhibitor cocktail. Cells were then homogenized by a handheld homogenizer at a speed of 4.5 for 1 min. The homogenate was centrifuged by a Beckman ultracentrifuge at a speed of 29,000×g for 15 min. The pellets were resuspended in buffer HE (10 mM HEPES, 1 mM EDTA, pH 7.4, with protease inhibitor cocktail), centrifuged again at 29,000×g for 15 min. The crude membrane was resuspended using buffer HE, and protein concentration was measured by the method of Lowery with BSA as standard. Similar procedures were used for membrane preparation for fresh rat tissues. All experimental procedures were done at 4° C. Membranes were aliquot and kept at −80° C.
The binding assays utilized 15 ug of A2A membrane (human recombinant A2A membrane, rat striatal membrane, or PC 12 cell membrane) that had been treated with adenosine deaminase and 50 mM Tris-EDTA buffer (pH=7.4) followed by mixing 2 μL of serially diluted DMSO stock solution of the compounds of this invention at concentrations ranging from 10 μM to 0.1 nM or the control received 2 μL of DMSO alone, then the tritiated antagonist 3-(3-hydroxypropyl)-7-methyl-8-(m-methoxystyryl)-1-propargylxanthine (3H-MSX-2) in Tris-EDTA buffer (50 mM Tris, 1 mM EDTA, 10 mM MgCl2, pH of 7.4) was added to achieve a final concentration of 2 nM. After incubation at 23° C. for 2 hours, the solutions were filtered using a membrane harvester with multiple washing of the membranes (3×). The filter plates were counted in scintillation cocktail affording the amount of displacement ^3H-MSX-2 by the competitive binding compositions of this invention. Radioligand binding data was analyzed using GraphPad Prism version 4.0 (San Diego, Calif.). […]

Compound	Ki
CCn1c(=O)c2c(C)c(/C=C/c3ccc(OC)c(OC)c3)sc2n(C)c1=O [I, 6-[(1E)-2-(3,4-dimethoxyphenyl)vinyl]-3-ethyl-1,5-dimethyl-1,3-dihydrothiopheno[2,3-d]pyrimidine-2,4-dione]	220 nM
CCn1c(=O)c2c(C)c(/C=C/c3ccc(OC)c(OC)c3)sc2n(COCc2ccccc2)c1=O [II, 6-[(1E)-2-(3,4-dimethoxyphenyl)vinyl]-3-ethyl-5-methyl-1-[(phenylmethoxy)methyl]-1,3-dihydrothiopheno[2,3-d]pyrimidine-2,4-dione]	866 nM
CCn1c(=O)[nH]c2sc(/C=C/c3ccccc3)c(C)c2c1=O [III, 6-((1E)-2-phenylvinyl)-3-ethyl-5-methyl-1,3-dihydrothiopheno[2,3-d]pyrimidine-2,4-dione]	171 nM
CCn1c(=O)[nH]c2sc(/C=C/c3ccc(F)cc3)c(C)c2c1=O [IV, 6-[(1E)-2-(4-fluorophenyl)vinyl]-3-ethyl-5-methyl-1,3-dihydrothiopheno[2,3-d]pyrimidine-2,4-dione]	189 nM
CCn1c(=O)[nH]c2sc(/C=C/c3ccc(C(F)(F)F)cc3)c(C)c2c1=O [IX, 6-{(1E)-2-[4-(trifluoromethyl)phenyl]vinyl}-3-ethyl-5-methyl-1,3-dihydrothiopheno[2,3-d]pyrimidine-2,4-dione]	674 nM
C#CCn1c(=O)c2c(C)c(/C=C/c3ccccc3)sc2n(C)c1=O [V, 6-((1E)-2-phenylvinyl)-1,5-dimethyl-3-prop-2-ynyl-1,3-dihydrothiopheno[2,3-d]pyrimidine-2,4-dione]	390 nM
CCn1c(=O)[nH]c2sc(/C=C/c3cccc(F)c3)c(C)c2c1=O [VI, 6-[(1E)-2-(3-fluorophenyl)vinyl]-3-ethyl-5-methyl-1,3-dihydrothiopheno[2,3-d]pyrimidine-2,4-dione]	242 nM
CCn1c(=O)[nH]c2sc(/C=C/c3ccc(Cl)cc3)c(C)c2c1=O [VII, 6-[(1E)-2-(4-chlorophenyl)vinyl]-3-ethyl-5-methyl-1,3-dihydrothiopheno[2,3-d]pyrimidine-2,4-dione]	320 nM
CCn1c(=O)[nH]c2sc(/C=C/c3ccc(-c4ccccc4)cc3)c(C)c2c1=O [VIII, 6-[(1E)-2-(4-phenylphenyl)vinyl]-3-ethyl-5-methyl-1,3-dihydrothiopheno[2,3-d]pyrimidine-2,4-dione]	776 nM

Continued, values first:

Ki	Compound
75 nM	CCn1c(=O)[nH]c2sc(/C=C/c3ccc(OC)c(OC)c3)c(C)c2c1=O [X, 6-[(1E)-2-(3,4-dimethoxyphenyl)vinyl]-3-ethyl-5-methyl-1,3-dihydrothiopheno[2,3-d]pyrimidine-2,4-dione]
277 nM	COc1ccc(/C=C/c2sc3[nH]c(=O)n(CC(C)C)c(=O)c3c2C)cc1OC [XI, 6-[(1E)-2-(3,4-dimethoxyphenyl)vinyl]-5-methyl-3-(2-methylpropyl)-1,3-dihydrothiopheno[2,3-d]pyrimidine-2,4-dione]
33 nM	CCn1c(=O)[nH]c2sc(/C=C/c3cccnc3)c(C)c2c1=O [XII, 6-((1E)-2-(3-pyridyl)vinyl)-3-ethyl-5-methyl-1,3-dihydrothiopheno[2,3-d]pyrimidine-2,4-dione]
182 nM	CCn1c(=O)[nH]c2sc(/C=C/c3ccc(C)cc3)c(C)c2c1=O [XIII, 6-[(1E)-2-(4-methylphenyl)vinyl]-3-ethyl-5-methyl-1,3-dihydrothiopheno[2,3-d]pyrimidine-2,4-dione]
119 nM	CCn1c(=O)[nH]c2sc(/C=C/c3ccc(OC)cc3)c(C)c2c1=O [XIV, 6-[(1E)-2-(4-methoxyphenyl)vinyl]-3-ethyl-5-methyl-1,3-dihydrothiopheno[2,3-d]pyrimidine-2,4-dione]
170 nM	CCn1c(=O)[nH]c2sc(/C=C/c3ccccc3F)c(C)c2c1=O [XV, 6-[(1E)-2-(2-fluorophenyl)vinyl]-3-ethyl-5-methyl-1,3-dihydrothiopheno[2,3-d]pyrimidine-2,4-dione]
104 nM	CCn1c(=O)[nH]c2sc(/C=C/c3cccc(OC)c3)c(C)c2c1=O [XVI, 6-[(1E)-2-(3-methoxyphenyl)vinyl]-3-ethyl-5-methyl-1,3-dihydrothiopheno[2,3-d]pyrimidine-2,4-dione]
38 nM	CCn1c(=O)[nH]c2sc(/C=C/c3ccccc3OC)c(C)c2c1=O [XVII, 6-[(1E)-2-(2-methoxyphenyl)vinyl]-3-ethyl-5-methyl-1,3-dihydrothiopheno[2,3-d]pyrimidine-2,4-dione]
96 nM	CCn1c(=O)[nH]c2sc(/C=C/c3cc(OC)cc(OC)c3)c(C)c2c1=O [XVIII, 6-[(1E)-2-(3,5-dimethoxyphenyl)vinyl]-3-ethyl-5-methyl-1,3-dihydrothiopheno[2,3-d]pyrimidine-2,4-dione]
